# Experimental data as given in patent US20240025891A1 (Celgene Corporation, priority 2020, published 2024).
# pIC50: −log10 of the molar value.
# Tested on: Dirofilaria immitis microfilariae and 4th stage larvae (L4)
# Test: Heartworm screen Dirofilaria immitis (DiMF and DiL4 assays)
# Type: cell-based
# Settings: read-out: D. immitis Act class
# Method: Heartworm Screen Dirofilaria immitis (D. immitis)
# (§1) Dirofilaria immitis, Microfilaria (DiMF) Assay. Compounds were dissolved and serially diluted in DMSO. Aliquots were spotted to the empty wells of assay plates. Media and microfilariae of Dirofilaria immitis were added to each well to dilute the test compounds to the desired concentrations. Assay plates were incubated for approximately 72 hours, and the larvae in each well were observed microscopically for drug effect. Microfilariae in each well were assessed subjectively for survival or paralysis, and results were reported as Minimum Effective Dose (MED).
# as §1, with “L4 stage (DiL4)” for “Microfilaria (DiMF)”, “4th stage larvae (L4)” for “microfilariae”, “Larvae” for “Microfilariae”
# Active and selective (DiL4 vs. DiMF potency) example compounds were subsequently evaluated in heartworm positive dog studies to correlate the in vitro selectivity profile with in vivo effects on circulating microfilariae.
compound,measurement,value
"Cc1ccnc(Nc2nc(-c3ncccc3-c3ccccc3)cs2)c1 [Example 103, N-(4-methylpyridin-2-yl)-4-(3-phenylpyridin-2-yl)thiazol-2-amine]",pIC50,> 6.70
"CCOc1cccc(-c2csc(Nc3cc(C)ccn3)n2)n1 [Example 78, 4-(6-ethoxypyridin-2-yl)-N-(4-methylpyridin-2-yl)thiazol-2-amine]",pIC50,5.30 to 6.30
"Cc1ccnc(Nc2nc(-c3cc(OC4COC4)ccn3)cs2)c1 [Example 102, N-(4-methylpyridin-2-yl)-4-(4-(oxetan-3-yloxy)pyridin-2-yl)thiazol-2-amine]",pIC50,5.30 to 6.30
"Cc1ccnc(-c2csc(Nc3ncccc3C)n2)c1 [Example 222, N-(3-methylpyridin-2-yl)-4-(4-methylpyridin-2-yl)thiazol-2-amine]",pIC50,> 6.70
"CC(=O)N(C)c1cc(C(F)(F)F)cnc1Nc1nc(-c2cc3c(cn2)N(C)CC3)cs1 [Example 76, N-methyl-N-(2-(4-(1-methyl-2,3-dihydro-1H-pyrrolo[2,3-c]pyridin-5-yl)thiazol-2-ylamino)-5-(trifluoromethyl)pyridin-3-yl)acetamide]",pIC50,5.30 to 6.30
"Cc1ccnc(Nc2nc(-c3cc(Cl)ccn3)cs2)c1 [Example 223, 4-(4-chloropyridin-2-yl)-N-(4-methylpyridin-2-yl)thiazol-2-amine]",pIC50,> 6.70
"c1ccc(-c2csc(Nc3cc(C4CC4)ccn3)n2)nc1 [Example 176, N-(4-cyclopropyl-pyridin-2-yl)-4-(pyridin-2-yl)thiazol-2-amine]",pIC50,> 6.70
"c1ccc(-c2cccnc2Nc2nc(-c3ccccn3)cs2)cc1 [Example 125, N-(3-phenylpyridin-2-yl)-4-(pyridin-2-yl)thiazol-2-amine]",pIC50,5.30 to 6.30
"CCc1sc(Nc2cc(C)ccn2)nc1-c1ccccn1 [Example 184, 5-ethyl-N-(4-methylpyridin-2-yl)-4-(pyridin-2-yl)thiazol-2-amine]",pIC50,6.30 to 6.70
"COc1ccnc(-c2csc(Nc3ncc(C(F)(F)F)cc3N(C)C(C)=O)n2)c1 [Example 96, N-(2-(4-(4-methoxypyridin-2-yl)thiazol-2-ylamino)-5-(trifluoromethyl)pyridin-3-yl)-N-methylacetamide]",pIC50,6.30 to 6.70
"Cc1ccnc(Nc2nc(-c3ccccn3)c(COCC3CCC3)s2)c1 [Example 182, 5-((cyclobutyl-methoxy)methyl)-N-(4-methylpyridin-2-yl)-4-(pyridin-2-yl)thiazol-2-amine]",pIC50,> 6.70
"c1ccc(-c2csc(Nc3cc4ccccc4cn3)n2)nc1 [Example 128, N-(isoquinolin-3-yl)-4-(pyridin-2-yl)thiazol-2-amine]",pIC50,6.30 to 6.70
"CC(=O)N(C)c1cc(C(F)(F)F)cnc1Nc1nc(-c2ccccn2)cs1 [Example 212, N-methyl-N-(2-(4-(pyridin-2-yl)thiazol-2-ylamino)-5-(trifluoro-methyl)pyridin-3-yl) acetamide]",pIC50,5.30 to 6.30
"Cc1cnc(Nc2nc(-c3ccccn3)cs2)c(C)c1 [Example 124, N-(3,5-dimethyl-pyridin-2-yl)-4-(pyridin-2-yl)thiazol-2-amine]",pIC50,> 6.70
"c1ccc(-c2csc(Nc3ccc4cc[nH]c4n3)n2)nc1 [Example 134, 4-(pyridin-2-yl)-N-(1H-pyrrolo [2,3-b]pyridin-6-yl)thiazol-2-amine]",pIC50,5.30 to 6.30
"CCOc1cnc(-c2csc(Nc3ncccc3C)n2)c(C)c1 [Example 75, 4-(5-ethoxy-3-methylpyridin-2-yl)-N-(3-methylpyridin-2-yl)thiazol-2-amine]",pIC50,> 6.70
"CNC(=O)c1ccc(-c2ccnc(Nc3nc(-c4ccccn4)cs3)c2)cc1 [Example 171, N-methyl-4-(2-(4-(pyridin-2-yl)thiazol-2-ylamino)pyridin-4-yl)benzamide]",pIC50,5.30 to 6.30
"c1ccc(-c2csc(Nc3cc4[nH]ccc4cn3)n2)nc1 [Example 136, 4-(pyridin-2-yl)-N-(1H-pyrrolo [3,2-c]pyridin-6-yl)thiazol-2-amine]",pIC50,5.30 to 6.30
"CCOc1cccnc1-c1csc(Nc2ncccc2C)n1 [Example 77, 4-(3-ethoxypyridin-2-yl)-N-(3-methylpyridin-2-yl)thiazol-2-amine]",pIC50,> 6.70
"FC(F)(F)c1ccc(Nc2nc(-c3ccccn3)cs2)nc1 [Example 217, 4-(pyridin-2-yl)-N-(5-(trifluoromethyl)pyridin-2-yl)thiazol-2-amine]",pIC50,> 6.70
"Cc1ccnc(Nc2nc(-c3ccc(Cl)cn3)cs2)c1 [Example 89, 4-(5-chloropyridin-2-yl)-N-(4-methylpyridin-2-yl)thiazol-2-amine]",pIC50,6.30 to 6.70
"CCOc1ccc(-c2csc(Nc3ncccc3C3CC3)n2)nc1 [Example 83, N-(3-cyclopropylpyridin-2-yl)-4-(5-ethoxypyridin-2-yl)thiazol-2-amine]",pIC50,5.30 to 6.30
"CCOc1ccc(-c2csc(Nc3nc(C)ccc3C)n2)nc1 [Example 86, N-(3,6-dimethylpyridin-2-yl)-4-(5-ethoxypyridin-2-yl)thiazol-2-amine]",pIC50,6.30 to 6.70
"c1ccc(-c2ccnc(Nc3nc(-c4ccccn4)cs3)c2)cc1 [Example 126, N-(4-phenylpyridin-2-yl)-4-(pyridin-2-yl)thiazol-2-amine]",pIC50,> 6.70
"Cc1ccnc(Nc2nc(-c3ccccn3)c(CCOC3CCC3)s2)c1 [Example 180, 5-(2-cyclobutoxy-ethyl)-N-(4-methylpyridin-2-yl)-4-(pyridin-2-yl)thiazol-2-amine]",pIC50,> 6.70
"CC(C)c1ccc(Nc2nc(-c3ccccn3)cs2)nc1 [Example 219, N-(5-isopropylpyridin-2-yl)-4-(pyridin-2-yl)thiazol-2-amine]",pIC50,> 6.70
"CC(=O)N(C)c1cc(C(F)(F)F)cnc1Nc1nc(-c2cc(OC(C)C)ccn2)cs1 [Example 82, N-(2-(4-(4-isopropoxypyridin-2-yl)thiazol-2-ylamino)-5-(trifluoromethyl)pyridin-3-yl)-N-methylacetamide]",pIC50,6.30 to 6.70
"CCc1cnc(Nc2nc(-c3ccccn3)cs2)cc1C(F)(F)F [Example 130, N-(5-ethyl-4-(trifluoro-methyl)pyridin-2-yl)-4-(pyridin-2-yl)thiazol-2-amine]",pIC50,> 6.70
